Where two headings read alike, the source gives them in different places. Numbered stars: 1 amine (or outer) side, 2 acyl side, 3 side chain; on linkers, the order of the positions; unused ones are H or OH. Square brackets hold non-standard residues; d marks the D form. Side chains are listed from the residue outwards. Peptide text beside a SMILES is read from it. * marks the point of attachment. C20 diacid = O=C(O)CCCCCCCCCCCCCCCCCCC(=O)*; γGlu = O=C(O)[C@H](CCC(=O)[*:2])N[*:1]; AEEA = NCCOCCOCC(=O)O; Aib = CC(C)(N)C(=O)O
Legend:
[1] = Turbidity of crude library peptides (absorbance at 600 nm); type: physicochemical; settings: Physical stability of peptides
Procedure, shortened: (§1)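 Values reflect mean ThT emission (ex 450, em 480 nm) over 72 h at 40° C, read every 10 min after 5 min shaking at 700 rpm, plus a single initial absorbance at 600 nm for turbidity. Peptides were at 267 μM, pH 4.0 acetate or pH 7.0 phosphate (50 mM), with 4 μM ThT.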

[2] = Fibril formation of crude library peptides (Thioflavin T); type: physicochemical; set-up: key: average ThT fluorescence emission at 480 nm (ex 450 nm), raw units; settings: Physical stability of peptides
Procedure, shortened: as §1

GLP1R = GLP1R (Homo sapiens, UniProt P43220); experiment: hGLP1R potency, cAMP accumulation in CHO-K1 cells stably overexpressing hGLP1R; type: cell-based; set-up: host or cells: CHO-K1; settings: for Selectivity: SCTR EC50/GLP1R EC50 ratio; for EC50: cAMP accumulation, CHO-K1 cells overexpressing hGLP1R; for SCTR EC50/GLP1R EC50 ratio: selectivity for hGLP1R over hSCTR, cAMP accumulation in CHO-K1 cells
Sequence of GLP1R (P43220 24-463): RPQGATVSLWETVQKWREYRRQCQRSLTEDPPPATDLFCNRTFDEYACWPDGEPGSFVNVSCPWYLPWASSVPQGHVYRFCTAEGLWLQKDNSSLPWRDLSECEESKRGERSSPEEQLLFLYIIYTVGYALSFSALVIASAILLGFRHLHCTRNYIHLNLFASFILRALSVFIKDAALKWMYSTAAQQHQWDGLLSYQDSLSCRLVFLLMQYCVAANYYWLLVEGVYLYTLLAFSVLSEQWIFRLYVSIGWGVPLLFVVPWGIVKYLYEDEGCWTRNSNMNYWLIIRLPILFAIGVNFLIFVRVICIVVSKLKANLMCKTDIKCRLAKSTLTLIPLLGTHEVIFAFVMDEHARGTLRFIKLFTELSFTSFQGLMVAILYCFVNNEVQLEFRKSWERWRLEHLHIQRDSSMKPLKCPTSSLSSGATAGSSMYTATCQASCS
Procedure, shortened: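 Potency reflects cAMP accumulation measured by time-resolved fluorescence energy transfer after a 30 min room-temperature stimulation in IBMX-containing (0.5 mM) DPBS with casein. Purified peptides were tested in duplicate over eleven threefold dilutions, and EC50 was obtained from sigmoid concentration-response fitting.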

SCTR = SCTR (Homo sapiens, UniProt P47872); experiment: hSCTR potency, cAMP accumulation in CHO-K1 cells stably overexpressing hSCTR; type: cell-based; set-up: alternatively Euroscreen ES-712-AF; FAST-0161L; host or cells: CHO-K1; settings: cAMP accumulation, CHO-K1 cells overexpressing hSCTR
Sequence of SCTR (P47872 23-440): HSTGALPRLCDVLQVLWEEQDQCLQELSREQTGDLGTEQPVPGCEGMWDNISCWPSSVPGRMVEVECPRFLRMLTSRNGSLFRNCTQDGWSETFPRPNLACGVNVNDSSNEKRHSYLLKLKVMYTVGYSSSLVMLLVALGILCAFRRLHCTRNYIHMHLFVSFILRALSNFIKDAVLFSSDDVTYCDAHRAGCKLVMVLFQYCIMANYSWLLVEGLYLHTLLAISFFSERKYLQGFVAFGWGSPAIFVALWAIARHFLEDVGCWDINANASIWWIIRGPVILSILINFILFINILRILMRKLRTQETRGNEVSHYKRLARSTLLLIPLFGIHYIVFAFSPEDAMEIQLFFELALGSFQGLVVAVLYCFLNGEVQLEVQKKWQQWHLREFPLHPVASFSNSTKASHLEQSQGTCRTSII
Procedure, shortened: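 Potency reflects cAMP accumulation after 30 min agonist exposure at room temperature in hSCTR-expressing CHO-K1 cells, with 0.5 mM IBMX present to block phosphodiesterase. EC50 was derived by nonlinear regression.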

[3] = read-out: pEC50 hGLPR1 (converted)
[4] = read-out: pEC50 hSCTR (converted)
[5] = read-out: hGLP1R pEC50 (converted)
[6] = read-out: hSCTR pEC50 (converted)

Structure (SMILES) | Turbidity (pH 7) [1] | Fibril formation [2] | Selectivity (GLP1R) | EC50 (GLP1R; [3]) [nM] | EC50 (SCTR; [4]) [nM] | EC50 (GLP1R; [5]) [nM] | SCTR EC50/GLP1R EC50 ratio (GLP1R) | EC50 (SCTR; [6]) [nM]
CC(C)C[C@H](NC(=O)[C@H](Cc1ccccc1)NC(=O)[C@H](CCCNC(=N)N)NC(=O)[C@H](CCC(N)=O)NC(=O)[C@@H](NC(=O)[C@H](C)NC(=O)[C@H](C)NC(=O)C(C)(C)NC(=O)[C@H](CCC(=O)O)NC(=O)[C@H](CCCCNC(=O)COCCOCCNC(=O)COCCOCCNC(=O)CC[C@H](NC(=O)CCCCCCCCCCCCCCCCCCC(=O)O)C(=O)O)NC(=O)[C@H](CC(C)C)NC(=O)[C@H](CCC(=O)O)NC(=O)[C@H](CO)NC(=O)[C@@H](NC(=O)[C@H](CC(=O)O)NC(=O)[C@H](CO)NC(=O)[C@@H](NC(=O)[C@H](Cc1ccccc1)NC(=O)[C@@H](NC(=O)CNC(=O)[C@H](CCC(=O)O)NC(=O)C(C)(C)NC(=O)[C@@H](N)Cc1c[nH]cn1)[C@@H](C)O)[C@@H](C)O)C(C)C)[C@@H](C)O)C(=O)N[C@@H](CCC(=O)O)C(=O)N[C@@H](Cc1c[nH]cn1)C(=O)N[C@@H](CC(C)C)C(=O)N[C@H](C(N)=O)C(C)C [compound 82] (H-H[Aib]EGTFTSDVSELK([AEEA-AEEA-γGlu-C20 diacid])E[Aib]AATQRFLEHLV-NH2) | 0.08 | 8549 | 11264 | 0.01 | 100 | – | – | –
CC(C)C[C@H](NC(=O)[C@H](CCC(=O)O)NC(=O)[C@H](CCCCNC(=O)COCCOCCNC(=O)COCCOCCNC(=O)CC[C@H](NC(=O)CCCCCCCCCCCCCCCCCCC(=O)O)C(=O)O)NC(=O)[C@H](CC(C)C)NC(=O)[C@@H](NC(=O)[C@H](CO)NC(=O)[C@@H](NC(=O)[C@H](CC(=O)O)NC(=O)[C@H](CO)NC(=O)[C@@H](NC(=O)[C@H](Cc1ccccc1)NC(=O)[C@@H](NC(=O)CNC(=O)[C@H](CCC(=O)O)NC(=O)C(C)(C)NC(=O)[C@@H](N)Cc1c[nH]cn1)[C@@H](C)O)[C@@H](C)O)C(C)C)C(C)C)C(=O)N[C@@H](C)C(=O)N[C@@H](C)C(=O)N[C@@H](CCC(N)=O)C(=O)N[C@@H](CCC(N)=O)C(=O)N[C@@H](CCCNC(=N)N)C(=O)N[C@@H](Cc1ccccc1)C(=O)N[C@@H](CC(C)C)C(=O)N[C@@H](CCC(=O)O)C(=O)N[C@@H](Cc1c[nH]cn1)C(=O)N[C@@H](CC(C)C)C(=O)N[C@H](C(N)=O)C(C)C [compound 33] (H-H[Aib]EGTFTSDVSVLK([AEEA-AEEA-γGlu-C20 diacid])ELAAQQRFLEHLV-NH2) | 0.08 | 45087 | 5737 | 0.0631 | 316 | – | – | –
CC[C@H](C)[C@H](NC(=O)[C@H](Cc1ccccc1)NC(=O)[C@H](CCCNC(=N)N)NC(=O)[C@H](CCC(N)=O)NC(=O)[C@H](CC(C)C)NC(=O)[C@H](C)NC(=O)[C@H](C)NC(=O)CNC(=O)[C@H](CCC(=O)O)NC(=O)[C@H](CC(C)C)NC(=O)[C@H](CC(C)C)NC(=O)[C@H](Cc1ccc(O)cc1)NC(=O)[C@H](CO)NC(=O)C(C)(C)NC(=O)[C@H](CC(=O)O)NC(=O)[C@H](CO)NC(=O)[C@@H](NC(=O)[C@H](Cc1ccccc1)NC(=O)[C@@H](NC(=O)CNC(=O)[C@H](CCC(=O)O)NC(=O)C(C)(C)NC(=O)[C@@H](N)Cc1c[nH]cn1)[C@@H](C)O)[C@@H](C)O)C(=O)N[C@@H](CCC(N)=O)C(=O)N[C@@H](Cc1c[nH]c2ccccc12)C(=O)N[C@@H](CC(C)C)C(=O)N[C@H](C(N)=O)C(C)C [compound 106] (H-H[Aib]EGTFTSD[Aib]SYLLEGAALQRFIQWLV-NH2) | 0.74 | 11918 | – | – | – | 0.0158 | 100392 | 1580
CC(C)C[C@H](NC(=O)[C@H](Cc1ccccc1)NC(=O)[C@H](CCCNC(=N)N)NC(=O)[C@H](CCC(N)=O)NC(=O)C(C)(C)NC(=O)[C@H](C)NC(=O)[C@H](C)NC(=O)[C@@H](NC(=O)[C@H](CCC(=O)O)NC(=O)[C@H](CCCCNC(=O)COCCOCCNC(=O)COCCOCCNC(=O)CC[C@H](NC(=O)CCCCCCCCCCCCCCCCCCC(=O)O)C(=O)O)NC(=O)[C@H](CC(C)C)NC(=O)[C@@H](NC(=O)[C@H](CO)NC(=O)[C@@H](NC(=O)[C@H](CC(=O)O)NC(=O)[C@H](CO)NC(=O)[C@@H](NC(=O)[C@H](Cc1ccccc1)NC(=O)[C@@H](NC(=O)CNC(=O)[C@H](CCC(=O)O)NC(=O)C(C)(C)NC(=O)[C@@H](N)Cc1c[nH]cn1)[C@@H](C)O)[C@@H](C)O)C(C)C)C(C)C)[C@@H](C)O)C(=O)N[C@@H](CCC(=O)O)C(=O)N[C@@H](Cc1c[nH]cn1)C(=O)N[C@@H](CC(C)C)C(=O)N[C@H](C(N)=O)C(C)C [compound 101] (H-H[Aib]EGTFTSDVSVLK([AEEA-AEEA-γGlu-C20 diacid])ETAA[Aib]QRFLEHLV-NH2) | 0.08 | 8172 | – | – | – | 0.2 | 5030 | 1000
CC(C)C[C@H](NC(=O)[C@H](Cc1ccccc1)NC(=O)[C@H](CCCNC(=N)N)NC(=O)[C@H](CCC(N)=O)NC(=O)[C@H](CO)NC(=O)[C@H](C)NC(=O)[C@H](C)NC(=O)[C@H](CCC(=O)O)NC(=O)[C@H](CCC(=O)O)NC(=O)[C@H](CCCCNC(=O)COCCOCCNC(=O)COCCOCCNC(=O)CC[C@H](NC(=O)CCCCCCCCCCCCCCCCCCC(=O)O)C(=O)O)NC(=O)[C@H](CC(C)C)NC(=O)[C@H](Cc1ccccc1)NC(=O)[C@H](CO)NC(=O)[C@@H](NC(=O)[C@H](CC(=O)O)NC(=O)[C@H](CO)NC(=O)[C@@H](NC(=O)[C@H](Cc1ccccc1)NC(=O)[C@@H](NC(=O)CNC(=O)[C@H](CCC(=O)O)NC(=O)C(C)(C)NC(=O)[C@@H](N)Cc1c[nH]cn1)[C@@H](C)O)[C@@H](C)O)C(C)C)C(=O)N[C@@H](CCC(=O)O)C(=O)N[C@@H](Cc1c[nH]cn1)C(=O)N[C@@H](CC(C)C)C(=O)N[C@H](C(N)=O)C(C)C [compound 38] (H-H[Aib]EGTFTSDVSFLK([AEEA-AEEA-γGlu-C20 diacid])EEAASQRFLEHLV-NH2) | 0.09 | 38424 | 35785 | 0.0316 | 1000 | – | – | –
CC(C)C[C@H](NC(=O)[C@H](CCC(=O)O)NC(=O)[C@H](CCCCNC(=O)COCCOCCNC(=O)COCCOCCNC(=O)CC[C@H](NC(=O)CCCCCCCCCCCCCCCCCCC(=O)O)C(=O)O)NC(=O)[C@H](CC(C)C)NC(=O)[C@H](CCC(=O)O)NC(=O)[C@H](CO)NC(=O)[C@@H](NC(=O)[C@H](CC(=O)O)NC(=O)[C@H](CO)NC(=O)[C@@H](NC(=O)[C@H](Cc1ccccc1)NC(=O)[C@@H](NC(=O)CNC(=O)[C@H](CCC(=O)O)NC(=O)C(C)(C)NC(=O)[C@@H](N)Cc1c[nH]cn1)[C@@H](C)O)[C@@H](C)O)C(C)C)C(=O)N[C@@H](C)C(=O)N[C@@H](C)C(=O)N[C@@H](CCC(N)=O)C(=O)N[C@@H](CCC(N)=O)C(=O)N[C@@H](CCCNC(=N)N)C(=O)N[C@@H](Cc1ccccc1)C(=O)N[C@@H](CC(C)C)C(=O)N[C@@H](CCC(=O)O)C(=O)N[C@@H](Cc1c[nH]cn1)C(=O)N[C@@H](CC(C)C)C(=O)N[C@H](C(N)=O)C(C)C [compound 99] (H-H[Aib]EGTFTSDVSELK([AEEA-AEEA-γGlu-C20 diacid])ELAAQQRFLEHLV-NH2) | 0.17 | 87225 | – | – | – | 0.0158 | 52372 | 794
CC(C)C[C@H](NC(=O)[C@H](Cc1ccccc1)NC(=O)[C@H](CCCNC(=N)N)NC(=O)[C@H](CCC(N)=O)NC(=O)[C@H](CC(C)C)NC(=O)C(C)(C)NC(=O)[C@H](C)NC(=O)[C@H](CCC(=O)O)NC(=O)[C@H](CCC(=O)O)NC(=O)[C@H](CCCCNC(=O)COCCOCCNC(=O)COCCOCCNC(=O)CC[C@H](NC(=O)CCCCCCCCCCCCCCCCCCC(=O)O)C(=O)O)NC(=O)[C@H](CC(C)C)NC(=O)[C@H](Cc1ccc(O)cc1)NC(=O)[C@H](CO)NC(=O)[C@@H]1CCCN1C(=O)[C@H](CC(=O)O)NC(=O)[C@H](CO)NC(=O)[C@@H](NC(=O)[C@H](Cc1ccccc1)NC(=O)[C@@H](NC(=O)CNC(=O)[C@H](CCC(=O)O)NC(=O)C(C)(C)NC(=O)[C@@H](N)Cc1c[nH]cn1)[C@@H](C)O)[C@@H](C)O)C(=O)N[C@@H](CCC(=O)O)C(=O)N[C@@H](Cc1c[nH]cn1)C(=O)N[C@@H](CC(C)C)C(=O)N[C@H](C(N)=O)C(C)C [compound 121] (H-H[Aib]EGTFTSDPSYLK([AEEA-AEEA-γGlu-C20 diacid])EEA[Aib]LQRFLEHLV-NH2) | 0.08 | 24767 | – | – | – | 2.51 | 17452 | 39800

Reference: patent US20260201008A1, “SECRETIN-DERIVED GLP1R SELECTIVE AGONISTS” (GUBRA A/S, priority 2023, published 2026)
